Where two headings read alike, the source gives them in different places.
Key:
[1] = tested on: KRAS G12V
[2] = tested on: RAS; experiment: Active Ras pull down assay (CRAF-RBD, Ral-GDS-RA) after EGF stimulation in HeLa cells; format: cell-based; settings: pre-treatment at 200 nM, 1 h before EGF stimulation
[3] = tested on: RAS; settings: cited from earlier work

Row | Structure (SMILES) | inactivation of KRAS (inhibition of KRAS activation), relative luminescence vs DMSO [1] | other results
1 | COc1cc(OC)c2c(c1)O[C@@]1(c3ccc(Br)cc3)[C@H](c3ccccc3)C[C@@H](O)[C@@]21O [FL3] | inactivation of KRAS | –
2 | COC(=O)[C@H]1[C@@H](O)[C@@]2(O)c3c(OC)cc(OC)cc3O[C@@]2(c2ccc(Br)cc2)[C@@H]1c1ccccc1 [FL10] | inactivation of KRAS | –
3 | CNC(=O)[C@H]1[C@@H](O)[C@@]2(O)c3c(OC)cc(OC)cc3O[C@@]2(c2ccc(Br)cc2)[C@@H]1c1ccccc1 [FL13] | inactivation of KRAS | –
4 | COc1ccc([C@@]23Oc4cc(OC)cc(OC)c4[C@]2(O)[C@H](O)C[C@H]3c2cccc(F)c2)cc1 [FL15] | inactivation of KRAS | –
5 | COc1ccc([C@@]23Oc4cc(OC)cc(OC)c4[C@]2(O)[C@H](OC=O)C[C@H]3c2ccccc2)cc1 [FL19] | inactivation of KRAS | –
6 | COc1cc(OC)c2c(c1)O[C@@]1(c3ccc(Br)cc3)[C@H](c3cccc(F)c3)C[C@H](NC(=O)N(C)C)[C@@]21O [FL37] | inactivation of KRAS | –
7 | COc1cc(OC)c2c(c1)O[C@@]1(c3ccc(Br)cc3)[C@H](c3cccc(F)c3)C[C@H](NC(N)=O)[C@@]21O [FL40] | inactivation of KRAS | –
8 | COc1cc(OC)c2c(c1)O[C@@]1(c3ccc(Cl)cc3)[C@H](c3cccc(F)c3)C[C@H](NC(=O)N(C)C)[C@@]21O [FL42] | inactivation of KRAS | –
9 | CNCCOc1ccc2c(c1)O[C@@]1(c3ccc(Cl)cc3)[C@H](c3ccccc3)C[C@@H](O)[C@@]21O [IMD-26260] | inactivation of KRAS | –
10 | COc1ccc([C@@]23Oc4cc(OC)cc(OC)c4[C@]2(O)[C@H](O)[C@H](C(=O)N(C)C)[C@H]3c2ccccc2)cc1 [rocaglamide] | – | activation of RAS in response to EGF (GTP-loaded Ras pull down) [2]: inhibited; inactivation of KRAS (inhibition of KRAS activation), relative luminescence vs DMSO ([1]; 100 nM compounds for 4 h, KRAS G12V transfected HeLa cells, similar results with KRAS WT + EGF (100 ng/ml, 30 min)): inactivation of KRAS; RAS-activation in KRAS-mutated cell lines [3]: inhibits RAS-activation; specificity for KRAS versus isoforms HRAS and NRAS [3]: not specific enough to differentiate between KRAS and a closely related isoform HRAS and NRAS

Reference: patent US20230165829A1, “FLAVAGLINE DERIVATIVES FOR INHIBITION OF KRAS ONCOGENE ACTIVATION” (KHR BIOTEC GMBH, priority 2018, published 2023)
